# Key:
# [1] = In vitro metabolic stability in hepatic microsomes, rodent summary; assay type: in vitro ADME, mouse and rat
# Protocol: (§1) The metabolic stability of SCY-078 was assessed after incubation with mouse, rat, dog, and human liver microsomes (Table 2) ([10]). […] The half-lives in rodent, dog, and human liver microsomes were ≥125, ≥29, and ≥42 min, respectively.
# (§2) The metabolic stability of SCY-078 was evaluated with male and female mouse, male rat, male and female dog, and mixed-gender human liver microsomes (XenoTech, Lenexa, KS). SCY-078 (1 μM) was incubated with pooled liver microsomes (0.5 mg protein/ml) for 0, 5, 10, 20, and 30 min at 37°C in the presence of NADPH. Aliquots were taken at each sampling time point and extracted with 5 volumes of ice-cold acetonitrile containing the internal standard (d9-SCY-078, 125 ng/ml). Supernatants from the incubation mixtures were analyzed for the parent compound by LC-MS/MS according to the conditions described below. The metabolic competency of microsomal preparations was established using the control compounds 7-ethoxycoumarin, propranolol, and verapamil. The in vitro intrinsic clearance (CLint), the CLint scaled to the in vivo intrinsic clearance (CL′int), and the half-life were determined for SCY-078 incubated with microsomes from each species.
# [2] = tested on: C. parapsilosis isolate CP 20519.069; set-up: method as in PMID 25512406; conditions: stasis ref 6; cited from earlier work
# [3] = In vitro metabolic stability in hepatic microsomes; assay type: in vitro ADME; conditions: for remaining at 0.5 h, 1 µM: read-out: % remaining after 30 min
# Protocol: as §1, §2
# [4] = logD; assay type: physicochemical
# [5] = tested on: C. albicans CLY18600; experiment: Single delayed-dose treatment model of disseminated candidiasis; assay type: in vivo, mice; conditions: single dose 16 h after infection, tissue burden 96 h after treatment, regression analysis
# [6] = tested on: C. glabrata isolate CG 5592; set-up: method as in PMID 25512406; conditions: cited from earlier work
# [7] = tested on: C. albicans MY1055; experiment: In vitro MIC, broth microdilution CLSI M27-A3; assay type: cell-based; conditions: Candida albicans, 50% inhibition of fungal growth at 24 h
# Protocol: A disseminated Candida infection was induced in C′5-deficient DBA/2N mice (Taconic Farms, Germantown, NY), weighing on average 20 g, by i.v. inoculation with C. albicans MY1055 (Merck Culture Collection). C. albicans MY1055 was cultured on Sabouraud dextrose agar (SDA; BBL, Cockeysville, MD) plates at 35°C for 24 h. Yeast cells were washed from the surface of agar plates into sterile saline, and the cell concentrations were quantitated by using a hemocytometer. Viable cell counts were confirmed by a serial 10-fold dilution of the cell suspension and plating on SDA plates. Plates were incubated for 24 to 48 h at 35°C, whereupon the numbers of CFU were determined. The in vitro activity of SCY-078 against the MY1055 isolate was evaluated using broth microdilution assays as described in CLSI M27-A3 ([39]).
# [8] = tested on: C. albicans CLY724; experiment: Single delayed-dose treatment model of disseminated candidiasis; assay type: in vivo, mice; conditions: single dose 16 h after infection, tissue burden 96 h after treatment, regression analysis
# [9] = in vivo; set-up: species or system beagle dogs; conditions: beagle, dog; for half-life: t1/2
# Protocol: The pharmacokinetics and bioavailability of SCY-078 were evaluated in uninfected mouse, rat, and dog after p.o. and i.v. administration. The in vivo phases of the PK studies were performed at either […] (Waltham, MA) or MPI Research (Mattawan, MI) after an Institutional Animal Care and Use Committee (IACUC) review. […] and MPI Research are Association for Assessment and Accreditation of Laboratory Animal Care International (AAALAC)-approved facilities. […] The peak concentration (Cmax), the time to maximum concentration (Tmax), the half-life, and the AUC were determined from composite mean plasma concentration-time data for rodents and individual plasma concentration-time data for dogs. All doses and plasma concentrations of SCY-078 are presented as free base. Treatment naive male and female beagle dogs (n = 3/sex/group/time point) weighing 8 to 12 kg (males) or 6 to 10 kg (females) were given a single 5-mg/kg dose of SCY-078 as an i.v. injection over 5 min or an oral dose of 20 mg/kg as described above. Blood specimens were collected from the jugular vein at various time intervals to 72 h postdosing and processed as described above.
# [10] = pKa values; assay type: physicochemical
# [11] = Biological distribution to kidney tissue after oral delivery; conditions: for Time to which concentrations would remain measurable in kidney: after dose 13, predicted from elimination rate constant
# Protocol: Female CD-1 mice (n = 5/sex/time point/group) weighing approximately 25 g were administered SCY-078 by oral gavage either once daily or as multiple twice-per-day (Q12h) treatments, with individual doses ranging between 3 and 100 mg/kg (6 to 150 mg/kg/day). Mice also received a single 1-mg/ml i.v. dose of SCY-078. Plasma specimens were collected prior to dosing and at 0.25, 0.5, 1, 2, 4, 6, 9, 12, 18, 24, 36, 48, and 60 h after the single i.v. dose and at the same time points from 1 h postdose onward following oral dose 13 on day 7 of treatment. On the first day of oral treatment, plasma specimens were collected immediately before each of the two doses and 1, 2, 4, 6, 9, and 12 h postdosing. […] Kidney tissues were collected at 2, 4, 12, 24, 36, 48, and 60 h after oral dose 13 on treatment day 7, blotted dry, and stored at approximately −80°C until analysis.
# On the day of analysis, either treatment-naive (drug-free) kidney tissue or freshly thawed tissue samples from PK studies were weighed and homogenized in 3 volumes of phosphate-buffered saline. The density of kidney tissue used for the determination of volume was assumed to be 1.0 g/ml.
# Whole-kidney tissue samples were homogenized in parallel by means of a Precellys 24 bead mill homogenizer (Bertin Technologies, Montigny le Bretonneux, France) using 2-ml Precellys tubes containing 1.4-mm-diameter ceramic beads (CK14) and a single 15-s cycle of 5,500 rpm. Parallel bead homogenization increased throughput and avoided potential cross-contamination of samples since each sample was wholly contained and homogenized within its own sealed vial with no direct contact between the homogenizing instrument or other samples.
# Mouse plasma (50 μl) or kidney tissue homogenate (50 μl) was treated with 5 volumes of acetonitrile containing 50 ng of deuterium (d9)-labeled SCY-078 internal standard/ml to precipitate proteins. Treated samples were mixed on a 96-well plate shaker for ∼30 min and then centrifuged at approximately 4,000 × g and 15°C for 15 min. Supernatants were transferred to fresh 96-well plates for analysis by LC-MS/MS.
# [12] = both sexes, human, pooled liver microsomes, human (mixed) liver microsomes
# [13] = pooled liver microsomes, male rat liver microsomes
# [14] = kidney, 12 mg/kg oral, dose 13 day 7
smiles,measurement,setting,value
"CC(C)[C@@H](C)[C@@]1(C)CC[C@]2(C)[C@H]3CC[C@@H]4[C@@]5(COC[C@@]4(C)[C@@H](OC[C@](C)(N)C(C)(C)C)[C@H](n4ncnc4-c4ccncc4)C5)C3=CC[C@@]2(C)[C@@H]1C(=O)O [SCY-078, (1S,4aR,6aS,7R,8R,10aR,10bR,12aR,14R,15R)-15-[[(2R)-2-amino-2,3,3-trimethylbutyl]oxy]-8-[(1R)-1,2-dimethylpropyl]-14-[5-(4-pyridinyl)-1H-1,2,4-triazol-1-yl]-1,6,6a,7,8,9,10,10a,10b,11,12,12a-dodecahydro-1,6a,8,10a-tetramethyl-4H-1,4a-propano-2H-phenanthro[1,2-c]pyran-7-carboxylic acid]",half-life at 1 μM,"[1]; both (mouse), male (rat), pooled liver microsomes, rodent liver microsomes",≥ 2.08 h
same,CLint scaled at 1 μM,"[1]; both (mouse), male (rat), pooled liver microsomes, rodent liver microsomes, read-out: CL′int (CLint scaled to in vivo intrinsic clearance)",< 0.04 mL/min/kg
same,microsomal CLint at 1 μM,"[1]; both (mouse), male (rat), pooled liver microsomes, rodents (mouse and rat) liver microsomes",≤ 11 µL/min/mg
same,"remaining at 0.5 h, 1 µM","[1]; both sexes, mouse, rat, liver microsomes, rodent microsomes, read-out: % remaining after 30 min",~85%
same,Total drug AUC0–24 target,[2],~18.8 µM·h
same,half-life at 1 μM,[3]; [12],≥ 0.7 h
same,microsomal CLint at 1 μM,[3]; [12],34 µL/min/mg
same,"remaining at 0.5 h, 1 µM","[3]; both sexes, pooled liver microsomes, human (mixed) liver microsomes",61%
same,CLint,[3]; human (mixed) liver microsomes,33 µL/min/mg
same,"remaining at 0.5 h, 1 µM",[3]; male rat liver microsomes,84%
same,half-life at 1 μM,[3]; [13],2.08 h
same,microsomal CLint at 1 μM,[3]; [13],11 µL/min/mg
same,logD,[4]; at PI,4.9
same,logD,[4]; pH 7.3,~6.4
same,Dose achieving stasis endpoint,[5],8.97 mg/kg
same,MIC,[6],0.25 µg/mL
same,MIC,[7],0.03 µg/mL
same,Dose achieving stasis endpoint,[8],9.93 mg/kg
same,AUC(0-inf),"[9]; both sexes, iv, 5 mg/kg",11900 ± 2200 ng·h/mL
same,AUC(0-t),"[9]; both sexes, iv, 5 mg/kg",10400 ± 1900 ng·h/mL
same,Vd,"[9]; both sexes, iv, 5 mg/kg",5.1 L/kg
same,clearance,"[9]; both sexes, iv, 5 mg/kg",7.5 mL/min/kg
same,half-life,"[9]; both sexes, iv, 5 mg/kg",~9.3 h
same,AUC(0-inf),"[9]; both sexes, po, 20 mg/kg",16000 ng·h/mL
same,AUC(0-t),"[9]; both sexes, po, 20 mg/kg",11500 ng·h/mL
same,Cmax,"[9]; both sexes, po, 20 mg/kg",810 ± 420 ng/mL
same,Tmax,"[9]; both sexes, po, 20 mg/kg",4 ± 2 h
same,bioavailability,"[9]; both sexes, po, 20 mg/kg, Bioavailability",~35%
same,half-life,"[9]; both sexes, po, 20 mg/kg",~15.2 h
same,Dose normalized AUC0–∞ to a 1-mg/kg dose,"[9]; both, iv",~2.4 µg·h/mL
same,t1/2,"[9]; both, iv, 5 mg/kg",9.3 h
same,pKa,[10]; carboxylic acid,5.5
same,pKa,[10]; primary amine,9
same,pKa,[10]; pyridine,2.4
same,Time to which concentrations would remain measurable in kidney,[11]; 6.25 mg/kg,approximately 100 h
same,Time to which concentrations would remain measurable in kidney,[11]; 12 mg/kg,~115 h
same,AUC0–24,"[11]; kidney, 6.25 mg/kg oral, dose 13 day 7",195000 ng·h/mL
same,AUC0–24,[11]; [14],553000 ng·h/mL
same,half-life,[11]; [14],8.6 h
